system: Small Brown Planthopper (Laodelphax Striatellus); test: Test of insecticidal efficacy against small brown planthopper (Test Example 2); type: in vivo; details: 500 ppm, rice plants soaked 30 seconds, third-instar larvae, eight days after inoculation; criteria same as in Test Example 1
Text: Test of Insecticidal Efficacy Against Small Brown Planthopper (Laodelphax Striatellus)

| SMILES | Corrected insect mortality, judgment |
| --- | --- |
| N#CCN1C(=O)c2nn(-c3cccnc3)cc2Oc2cc(F)ccc21 [Compound No. 1-13, 2-(6-fluoro-10-oxo-2-(pyridine-3-yl)-2H-benzo [b]pyrazolo [3,4-f][1,4]oxazepine-9 (10H)-yl) acetonitrile] | A to D |
| O=C1Nc2ccc(Cl)cc2Oc2cn(-c3cccnc3)nc21 [1-26] | A to D |
| C=CCN1C(=O)c2nn(-c3cccnc3)cc2Oc2cc(F)ccc21 [8-23] | A to D |
| CCSC1=Nc2cc(F)ccc2Oc2cn(-c3cccnc3)nc21 [11-19] | A to D |
| CCCCCCCCCCCCN1C(=O)c2nn(-c3cccnc3)cc2Oc2ccc(F)cc21 [8-37] | A to D |
| CN1C(=O)c2nn(-c3cccnc3)cc2Oc2ccc(F)cc21 [1-15] | A to D |
| O=C1c2nn(-c3cccnc3)cc2Oc2ccccc2N1CC(F)(F)C(F)(F)F [8-20] | A to D |
| CC(C#N)N1C(=O)c2nn(-c3cccnc3)cc2Oc2ccccc21 (centres unmarked) [1-77] | A to D |
| O=C1c2nn(-c3cccnc3)cc2Oc2ccc(F)cc2N1CCCl [8-38] | A to D |
| C#CCN1C(=O)c2nn(-c3cccnc3)cc2Oc2cc(C(F)(F)F)ccc21 [1-35] | A to D |
| O=C1c2nn(-c3cccnc3)cc2Oc2ccccc2N1Cc1ccccn1 [1-57] | A to D |
| Cc1ccc2c(c1)Oc1cn(-c3cccnc3)nc1C(=O)N2C [1-31] | A to D |
| N#CCN1C(=O)c2nn(-c3cccnc3)cc2Oc2ccc(Br)cc21 [8-66] | A to D |
| N#CCN1C(=O)c2nn(-c3cccnc3)cc2Oc2ccc(Cl)cc21 [8-57] | A to D |
| C=CCN1C(=O)c2nn(-c3cccnc3)cc2Oc2c1c(C)nn2C [14-3] | A to D |
| CCOCN1C(=O)c2nn(-c3cccnc3)cc2Oc2ccccc21 [8-21] | A to D |
| Fc1ccc2c(c1)N=C(N1CCOCC1)c1nn(-c3cccnc3)cc1O2 [11-15] | A to D |
| C=CCN1C(=O)c2nn(-c3cccnc3)cc2Oc2ccc(Br)cc21 [8-64] | A to D |
| COCOC1=Nc2ccccc2Oc2cn(-c3cccnc3)nc21 [11-16] | A to D |
| C#CCN1Cc2nn(-c3cccnc3)cc2Oc2ccccc21 [3-3] | A to D |
| C=CCN1C(=O)c2nn(-c3cccnc3)cc2Oc2ccc(Cl)cc21 [8-58] | A to D |
| CN(C)CCN1C(=O)c2nn(-c3cccnc3)cc2Oc2ccccc21 [1-69] | A to D |

system: Green Peach Aphid (Myzus Persicae); test: Test of preventive value against green peach aphid (Test Example 1); type: in vivo; details: 500 ppm, sprayed over stems and leaves of potted Chinese cabbages, sixth day after spraying
Procedure: Test of Preventive Value Against Green Peach Aphid (Myzus Persicae)
Chinese cabbages were planted in plastic pots, each with a size of 8 cm in diameter and 8 cm in height, after which green peach aphids were propagated and the number of parasitic insects was examined in each pot. An oxazepine compound or salt thereof expressed by General Formula (I) according to the present invention was dispersed in water and the dispersion was diluted to 500 ppm in the form of a reagent, after which the reagent was sprayed over stems and leaves of potted Chinese cabbages and let dry under wind, and the pots were kept in a greenhouse, and on the sixth day after the reagent was sprayed, the number of green peach aphids living parasitically on each Chinese cabbage was examined and the preventive value was calculated based on the formula below, and judgment was made according to the criteria below. Preventive value=100−{(T×Ca)/(Ta×C)}×100 [Mathematical Formula 1] • Ta: Number of parasitic insects inside the treatment area before spraying • T: Number of parasitic insects inside the treatment area after spraying • Ca: Number of parasitic insects inside the non-treatment area before spraying • C: Number of parasitic insects inside the non-treatment area after spraying Judgment Criteria • A - - - Preventive value: 100% • B - - - Preventive value: 99%˜90% • C - - - Preventive value: 89%˜80% • D - - - Preventive value: 79%˜50%

| SMILES | Preventive value, judgment |
| --- | --- |
| N#CCN1C(=O)c2nn(-c3cccnc3)cc2Oc2cc(F)ccc21 [Compound No. 1-13, 2-(6-fluoro-10-oxo-2-(pyridine-3-yl)-2H-benzo [b]pyrazolo [3,4-f][1,4]oxazepine-9 (10H)-yl) acetonitrile] | A to D |
| O=C1c2nn(-c3cccnc3)cc2Oc2ccc(F)cc2N1CC1OCCO1 [8-43] | A to D |
| O=C1Nc2ccc(Cl)cc2Oc2cn(-c3cccnc3)nc21 [1-26] | A to D |
| O=C1Nc2ccccc2Nc2cn(-c3cccnc3)nc21 [10-1] | A to D |
| C[S+]([O-])CN1C(=O)c2nn(-c3cccnc3)cc2Oc2ccc(F)cc21 (centres unmarked) [8-48] | A to D |
| N#CCCCN1C(=O)c2nn(-c3cccnc3)cc2Oc2cc(F)ccc21 [8-30] | A to D |
| CN1Cc2nn(-c3cccnc3)cc2Oc2ccccc21 [3-2] | A to D |
| CCSC1=Nc2cc(F)ccc2Oc2cn(-c3cccnc3)nc21 [11-19] | A to D |
| CN1C(=O)c2nn(-c3cncc(Br)c3)cc2Oc2ccccc21 [1-83] | A to D |
| CCCCCCCCCCCCN1C(=O)c2nn(-c3cccnc3)cc2Oc2ccc(F)cc21 [8-37] | A to D |
| CN1C(=O)c2nn(-c3cccnc3)cc2Oc2cc(Br)ccc21 [8-61] | A to D |
| CON=CCN1C(=O)c2nn(-c3cccnc3)cc2Oc2ccccc21 [8-16] | A to D |
| CN1C(=O)c2nn(-c3cccnc3)cc2Oc2ccc(F)cc21 [1-15] | A to D |
| O=C1c2nn(-c3cccnc3)cc2Oc2ccc(F)cc2N1CCN1CCOCC1 [8-44] | A to D |
| O=C1c2nn(-c3cccnc3)cc2Oc2ccccc2N1CC(F)(F)C(F)(F)F [8-20] | A to D |
| CC(C#N)N1C(=O)c2nn(-c3cccnc3)cc2Oc2ccccc21 (centres unmarked) [1-77] | A to D |
| O=C1c2nn(-c3cccnc3)cc2Oc2ccc(F)cc2N1CCCl [8-38] | A to D |
| C[S+]([O-])CN1C(=O)c2nn(-c3cccnc3)cc2Oc2ccccc21 (centres unmarked) [8-3] | A to D |
| C#CCN1C(=O)c2nn(-c3cccnc3)cc2Oc2cc(C(F)(F)F)ccc21 [1-35] | A to D |
| O=C1c2nn(-c3cccnc3)cc2Oc2ccccc2N1Cc1ccccn1 [1-57] | A to D |
| Cc1nn(C)c2c1N(C)C(=O)c1nn(-c3cccnc3)cc1O2 [14-2] | A to D |
| O=C1c2nn(-c3cccnc3)cc2Oc2ccc(F)cc2N1CC(F)(F)F [8-39] | A to D |

| SMILES | Preventive value, judgment |
| --- | --- |
| CN1CCN(C2=Nc3ccccc3Oc3cn(-c4cccnc4)nc32)CC1 [11-12] | A to D |
| CN1CCN(C2=Nc3cc(F)ccc3Oc3cn(-c4cccnc4)nc32)CC1 [11-13] | A to D |
| C#CCN1C(=O)c2nn(-c3cccnc3)cc2Oc2c1c(C)nn2C [14-4] | A to D |
| CSCN1C(=O)c2nn(-c3cccnc3)cc2Oc2ccc(F)cc21 [8-47] | A to D |
| O=C1c2nn(-c3cccnc3)cc2Oc2cc(F)ccc2N1CC1CC1 [8-27] | A to D |
| CN1C(=O)c2nn(-c3cccnc3)cc2Oc2cc(I)ccc21 [8-67] | A to D |
| c1cncc(-n2cc3c(n2)C(N2CCOCC2)=Nc2ccccc2O3)c1 [11-14] | A to D |
| O=CCN1C(=O)c2nn(-c3cccnc3)cc2Oc2ccccc21 [8-15] | A to D |
| O=C1Nc2ccsc2Oc2cn(-c3cccnc3)nc21 [15-1] | A to D |
| O=C1c2nn(-c3cccnc3)cc2Oc2ccc(F)cc2N1CC1CC1 [8-36] | A to D |
| O=C1c2nn(-c3cccnc3)cc2Oc2ccccc2N1CC1OCCO1 [8-11] | A to D |
| CN1C(=O)c2nn(-c3cccnc3)cc2Oc2ccc(Cl)cc21 [8-55] | A to D |
| C#CCN1C(=O)c2nn(-c3cccnc3)cc2Oc2sccc21 [15-3] | A to D |
| O=C1c2nn(-c3cccnc3)cc2Oc2ccccc2N1CCSCCC(F)(F)F [8-17] | A to D |
| CC#CCN1C(=O)c2nn(-c3cccnc3)cc2Oc2ccccc21 [8-5] | A to D |
| COCN1C(=O)c2nn(-c3cccnc3)cc2Oc2c(F)cccc21 [8-22] | A to D |
| NC(=O)CCN1C(=O)c2nn(-c3cccnc3)cc2Oc2ccccc21 [8-8] | A to D |
| N#CCN1C(=O)c2nn(-c3cccnc3)cc2Oc2sccc21 [15-4] | A to D |
| CC(C#N)N1C(=O)c2nn(-c3cccnc3)cc2Oc2ccc(F)cc21 (centres unmarked) [8-50] | A to D |
| O=CN1C(=O)c2nn(-c3cccnc3)cc2Oc2ccc(F)cc21 [8-53] | A to D |
| O=C1Nc2ccc(Cl)cc2Oc2c1nn(-c1cccnc1)c2Cl [9-4] | A to D |
| CCC(C)N1C(=O)c2nn(-c3cccnc3)cc2Oc2cc(F)ccc21 (centres unmarked) [8-29] | A to D |

| SMILES | Preventive value, judgment |
| --- | --- |
| N#CCN1Cc2nn(-c3cccnc3)cc2Oc2cc(F)ccc21 [3-5] | A to D |
| C[Si](C)(C)C#CC1=Nc2ccccc2Oc2cn(-c3cccnc3)nc21 [11-4] | A to D |
| CN1C(=O)c2nn(-c3cccnc3)cc2Oc2ccc(Br)cc21 [8-63] | A to D |
| O=C1Nc2cccc(Cl)c2Oc2cn(-c3cccnc3)nc21 [1-22] | A to D |
| N#CCN1C(=O)c2nn(-c3cccnc3)c(Cl)c2Oc2cc(F)ccc21 [9-5] | A to D |
| CN(C)C(=O)N1C(=O)c2nn(-c3cccnc3)cc2Oc2ccccc21 [8-14] | A to D |
| CC(=O)N1Cc2nn(-c3cccnc3)cc2Oc2ccc(F)cc21 [3-9] | A to D |
| CN1C(=O)c2nn(-c3cccnc3)cc2Oc2cccc(Cl)c21 [8-59] | A to D |
| O=C1Nc2ccc(Br)cc2Oc2cn(-c3cccnc3)nc21 [8-60] | A to D |
| N#CC(F)N1C(=O)c2nn(-c3cccnc3)cc2Oc2cc(F)ccc21 (centres unmarked) [8-33] | A to D |
| N#CCCCN1C(=O)c2nn(-c3cccnc3)cc2Oc2ccc(F)cc21 [8-51] | A to D |
| O=C1c2nn(-c3cccnc3)cc2Oc2ccccc2N1CC[S+]([O-])CCC(F)(F)F (centres unmarked) [8-18] | A to D |
| CC(C)CN1C(=O)c2nn(-c3cccnc3)cc2Oc2cc(F)ccc21 [8-28] | A to D |
| C#CCN1C(=O)c2nn(-c3cccnc3)cc2Oc2ccc(Br)cc21 [8-65] | A to D |
| CN(C)C(=O)CN1C(=O)c2nn(-c3cccnc3)cc2Oc2ccccc21 [8-7] | A to D |
| CC(C)=CCN1C(=O)c2nn(-c3cccnc3)cc2Oc2ccccc21 [8-6] | A to D |
| CN1C(=O)c2nn(-c3cccnc3)cc2Oc2sccc21 [15-2] | A to D |
| NC(=O)CN1C(=O)c2nn(-c3cccnc3)cc2Oc2ccc(F)cc21 [8-52] | A to D |
| O=C1c2nn(-c3cccnc3)cc2Oc2ccccc2N1CCS(=O)(=O)CCC(F)(F)F [8-19] | A to D |
| CC(=O)OCN1C(=O)c2nn(-c3cccnc3)cc2Oc2ccccc21 [8-9] | A to D |

Source: patent US10100061B2, “Oxazepine compound and agricultural/horticultural insecticide containing said compound as active ingredient, and method for using the same” (NIHON NOHYAKU CO., LTD., priority 2014, dated 2018)
